Test results taken from patent publication US20240109914A1, “IMIDAZOTHIAZOLE COMPOUNDS AND ANALOGS THEREOF AND METHODS FOR TREATING NEMATODE INFECTIONS IN PLANTS” (The Governing Council of The University of Toronto, priority 2021, published 2024).
Read-outs that look alike come from different tables or passages of the source.

Legend:
[1] = tested on: C. elegans; experiment: C. elegans dose-response (viability, minimum lethal concentration); type: in vivo, Caenorhabditis elegans; details: Caenorhabditis elegans, 72 h, L1 worms, 3 days at 20° C.
Protocol: Forty microliters of an HB101 E. coli bacterial suspension in liquid NGM (nematode growth media—see ref. 42 for the recipe) was added to each well of a 96-well flat-bottom culture plate, after which approximately 25 synchronized L1 worms, in 10 μl of M9 buffer (see ref. 43 for the recipe), were added to each well. The synchronized L1 worms were obtained from an embryo preparation performed the previous day (see ref. 43 for the protocol). For the L1 assays, 0.5 μl of test compound solution (or DMSO alone) was immediately added to the wells using a multichannel pipette; the final DMSO concentration is 1% (v/v). The worms were incubated for 3 days at 20° C. and the number of viable animals was counted.
At least three biological replicates were performed for each dose-response assay. For each biological replicate, two technical replicates were performed and the numbers of viable animals for each technical replicate were combined (i.e. ˜ 50 worms assayed per concentration). The number of viable worms at each concentration was divided by the corresponding DMSO control value to give the “relative viability” for each concentration. The “relative viability” values were then averaged across the biological replicates. Minimum lethal concentration was defined as the lowest concentration at which at least 20% of worms die.

[2] = tested on: M. incognita J2 larvae; experiment: Meloidogyne incognita in vitro larval mobility assay; type: in vivo; details: 45 μM, 4 days; for Replicate 1 z-score / Replicate 2 z-score: z-score vs untreated DMSO wells; for pest or weed control at 45 µM: Meloidogyne incognita, 96 h
Protocol: M. incognita (Kofoid & White) Chitwood Race 1 (originally isolated in Maryland) was used for all experiments, and was maintained on pepper (Capsicum annuum L.) cv. PA-136 in a greenhouse as previously described^44. Infective J2 juveniles were collected as described in ref. 45. The microwell dose-response experiments were carried out similarly to previously described protocols^44,46. In brief, 50 μL of deionized water was added to the wells of 96-well polystyrene plates and 0.5 μL of test compound (or DMSO alone) was added to each well. Approximately 35 J2s were then added to each well in 49.5 μL of deionized water. The chemicals were tested at 45 μM, and the final concentration of DMSO in each well was 0.5% (v/v). DMSO alone was added to 3 separate wells. The plates were covered with plastic adhesive strips, and the lids of the plates were sealed with parafilm. The plates were incubated at 25° C. without shaking for 4 days. The percent of worms that were immobile (% immobile) was quantified by counting the number of immobile worms after 4 days of incubation, dividing the number of immobile worms by the total number of worms in the well, and then multiplying by 100. Two replicates were performed for each treatment. The z-score for each treatment was calculated using the mean and standard deviation of the untreated DMSO control wells. The average % immobile value was calculated across the two replicates. A test compound was considered most promising if the z-score was greater than 1.645 in both replicates.

[3] = tested on: M. chitwoodi J2 larvae; experiment: Meloidogyne chitwoodi in vitro larval mobility assay; type: in vivo; details: Meloidogyne chitwoodi, 48 h, 2 days, average of three replicates, read-out: % Immobile
Protocol: M. chitwoodi race 1 (the strain commonly found in the pacific northwest of the United States) was used for all experiments, and was maintained on tomato plants (Solanum lycopersicum ‘Rutgers’) as previously described^47. The microwell dose-response experiments were carried out similarly to previously described protocols^44,46. […] The chemicals were tested at 45 μM, and the final concentration of DMSO in each well was 0.5% (v/v). The wells were covered with a plastic adhesive strip, and the lids of the plates were sealed with parafilm. The plates were incubated at 25° C. for 2 days. The percent of worms that were immobile (% immobile) was quantified by counting the number of immobile worms after 2 days of incubation, dividing the number of immobile worms by the total number of worms in the well, and then multiplying by 100. […] The average % immobile value was calculated across the three replicates.

[4] = tested on: M. hapla eggs; experiment: Meloidogyne hapla in vitro egg hatch assay; type: in vivo; details: 45 μM; for Number of Hatched Eggs: 8 days at room temperature, about 90 eggs per well, tested once; for Number of Hatched Eggs z-score: 8 days, z-score vs 8 untreated DMSO wells
Protocol: The M. hapla were originally obtained from a soil sample of muck soil from Ste-Clotilde, Quebec, Canada. Using tweezers, egg masses were carefully removed from root material from infested carrot roots. Eggs were liberated from the egg masses using a mild sodium hypochlorite bleaching protocol, whereby egg masses were bleached with a 10% commercial bleach (sodium hypochlorite) solution for 4 minutes with vigorous shaking, and then washed 5 times with deionized water. 50 μL of deionized water was added to each well of two 96-well polystyrene culture plates, and 0.5 μL of chemical (or DMSO alone) was added to each well. Approximately 90 eggs were added to each well in 49.5 ul of deionized water. The plates were sealed with parafilm and incubated for 8 days at room temperature without shaking in a Tupperware box filled with wet paper towels. After the 8-day incubation, the number of hatched eggs was counted for each treatment and for the untreated controls. Each chemical treatment was tested only once. 8 separate untreated DMSO controls were included in the experiment. The z-score for each treatment was calculated using the mean and standard deviation of the untreated DMSO control wells.

[5] = tested on: M. incognita; experiment: Meloidogyne incognita infectivity assay (soil, tomato roots); type: in vivo; details: Meloidogyne incognita, 1344 h, 45 μM in soil, 8 weeks, eggs per mg root relative to DMSO control, read-out: % effectiveness at inhibiting reproduction of M. incognita
Description: An M. incognita population originally collected from grape (Vitis vinifera) in Parlier, California, was used for all experiments, and they were maintained on tomato plants (Solanum lycopersicum ‘Rutgers’) as previously described^47. Infective J2 juveniles were collected as described in ref. 47.

[6] = tested on: tomato plants; experiment: Root mass of tomato plants in the soil infectivity assay; details: 45 μM in soil, 8 weeks
Protocol: For the infectivity assays, 90 grams of soil (1:1 sand:loam mix) was added to each cell of several 6-cell plastic garden packs. The soil was drenched with 18 mL of deionized water containing dissolved test compound or DMSO alone. 2,500 infective J2 juveniles were then added to the soil in 2 mL of deionized water, for a total water volume of 20 mL. […] The DMSO concentration varied from 0.1% to 0.8% (v/v) depending on the stock concentration of the test compound. The highest DMSO concentration was used as the DMSO control. The J2s were incubated in the soil and chemical for 24 hours, after which two- to three-week old tomato seedlings were transplanted into the soil (one plant per cell). Two replicates were performed for each chemical treatment, and four replicates were done for the DMSO controls. The whole experiment was replicated twice, in two different batches on two different days, for a total of four replicates for each test compound treatment, and eight replicates for the DMSO controls. Inoculated plants were grown for 8 weeks in a greenhouse, as described^47, under long-day conditions (16-h photoperiod) with 26/18° C. day/night temperatures. After 8 weeks, the plants were destructively harvested. The tops were removed and discarded, and roots were gently washed with water to remove adhering soil. Eggs were extracted by placing rinsed roots in 0.6% sodium hypochlorite and agitating at 300 rpm for 3 min. Roots were then rinsed over nested 250—and 25.4-μm sieves, with eggs collected from the latter and suspended in water. Roots were dried in a 65° C. oven for at least 24 hours, after which dry roots were weighed. The number of eggs from each plant root was counted on a dissection microscope using a haemocytometer, and the number of eggs per milligram of root was calculated by dividing the total egg number by the mass of the dried root material. An average was taken across the replicates performed on the same day, and then normalized to the DMSO control average. […] An average percent effectiveness value was then calculated across the two different batches carried out on different days.

[7] = lowest concentration at which at least 20% of worms die, read-out: Minimum Lethal Concentration
[8] = same values in ppm, read-out: Minimum Lethal Concentration (ppm)
[9] = replicate 1, read-out: Replicate 1 % Immobile
[10] = replicate 2, read-out: Replicate 2 % Immobile
[11] = average of the two replicates, read-out: Average % Immobile

SMILES | minimal effective concentration [1, 7] [µM] | minimal effective concentration [1, 8] [µg/mL] | Replicate 1 z-score ([2]; replicate 1) | Replicate 2 z-score ([2]; replicate 2) | pest or weed control at 45 µM [2, 9] [%] | pest or weed control at 45 µM [2, 10] [%] | pest or weed control at 45 µM [3] [%] | Number of Hatched Eggs [4] | Number of Hatched Eggs z-score [4] | pest or weed control at 45 µM [2, 11] [%] | pest or weed control at 45 µM [5] [%] | Normalized root mass (relative to DMSO control) [6]
Clc1ccc(-c2cn3ccoc3n2)cc1 [I-47, 6-(4-chlorophenyl)imidazo[2,1-b]oxazole] | 50 | 10.9 | [14.96] | [15.52] | 95.9 | 95.6 | 62.7 | 1 | [4.30] | – | – | –
O=C(NCCc1ncc(C(F)(F)F)cc1Cl)c1ccccc1C(F)(F)F [Fluopyram, fluopyram, reference compound] | – | – | [14.82] | [21.99] | 100 | 100 | 100 | 0 | [4.63] | 100 | – | –
Cc1cn2cc(-c3cccc(F)c3)nc2s1 [I-17] | 100 | 23.2 | – | – | – | – | – | 3 | [3.64] | – | 21.8 | 1.30
Cc1cn2cc(-c3cccc(Cl)c3)nc2s1 [I-26] | 25 | 6.2 | [6.47] | [1.92] | 54.4 | 20.4 | – | – | – | 37.4 | 0 | 1.43
Cc1csc2nc(-c3ccccc3Cl)cn12 [I-29] | 100 | 24.9 | – | – | – | – | – | 4 | [3.31] | – | 15 | 1.14
Cc1csc2nc(-c3cccc(Cl)c3)cn12 [I-25] | > 100 | > 24.9 | – | – | – | – | – | 4 | [3.31] | – | 24.6 | 1.27
Clc1ccccc1-c1cn2ccsc2n1 [I-27] | 100 | 23.5 | [6.81] | [3.28] | 56 | 27.9 | – | 4 | [3.31] | 42 | 0 | 1.42
Cc1cn2cc(-c3ccccc3F)nc2s1 [I-21] | 50 | 11.6 | [5.78] | [5.62] | 51 | 40.8 | – | – | – | 45.9 | 24.4 | 1.24
Clc1ccc(-c2cn3ccsc3n2)cc1Cl [I-31] | 6.25 | 1.7 | [2.33] | [4.78] | 34.1 | 36.2 | – | 1 | [4.30] | 35.1 | 18.1 | 1.25
Cc1c(-c2ccc(Cl)cc2)nc2sccn12 [I-22] | 12.5 | 3.1 | [7.55] | [4.26] | 59.6 | 33.3 | > 75 | 1 | [4.30] | 46.5 | – | –
Cc1c(-c2ccccc2)nc2sccn12 [I-1] | > 100 | > 21.4 | – | – | – | – | 48.2 | – | – | – | – | –
Cc1cn2cc(-c3ccccc3Cl)nc2s1 [I-30] | > 100 | > 24.9 | [8.34] | [5.62] | 63.5 | 40.8 | – | – | – | 52.1 | 16 | 1.30
Cc1c(-c2cccc(Br)c2)nc2sccn12 [I-35] | > 50 | 14.7 | – | – | – | – | – | 2 | [3.97] | – | 10.2 | 1.26
Cc1cn2cc(-c3ccccc3Br)nc2s1 [I-41] | > 100 | > 29.3 | [3.31] | [6.62] | 38.9 | 46.3 | – | – | – | 42.6 | 6.6 | 1.18
c1cncc(-c2cn3ccsc3n2)c1 [I-45] | > 100 | > 20.1 | [1.92] | [3.20] | 32.1 | 27.4 | 13.8 | – | – | 29.8 | – | –
Fc1cccc(-c2cn3ccsc3n2)c1 [I-14] | 100 | 21.8 | [15.43] | [13.11] | 98.2 | 82.2 | – | 1 | [4.30] | ≥ 75 | 17.6 | 1.28
Cc1c(-c2cccc(Cl)c2)nc2sccn12 [I-24] | 100 | 24.9 | [1.68] | [4.78] | 30.9 | 36.2 | – | – | – | 33.6 | 23.6 | 1.34
